# Test results taken from patent publication US20230181543A1, “TREATMENT OF CARM1-OVEREXPRESSING AND/OR ARID1A MUTANT CANCERS WITH IRE-1/XBP-1 INHIBITORS” (The Wistar Institute of Anatomy and Biology, priority 2020, published 2023).
# “Also recorded” adds a separate entry of the source.
# Legend:
# XBP-1 = conditions: B-I09 20 μM, 48 h (FIG. 3A)
# Text: (FIG. 3B) Dose response curve of B-I09 in wild-type and CARM1 knockout A1847 cells. (FIG. 3C) The expression of CARM1 in different HGSOC cell lines. (FIG. 3D) The IC50 of B-I09 in CARM1-low and high HGSOC cells.
# Next, the inventors investigated whether the activated IRE-1-XBP-1 pathway is required for the survival of CARM1-high parental cells. […] To investigate whether the IRE-1-XBP-1 inhibition suppresses CARM1-high cells through inducing cell death, western blotting of apoptotic markers was performed. […] Therefore, to investigate whether lipid biosynthesis affects the selectivity of CARM1-high cells to inhibit the XBP-1 pathway, cells are treated with B-I09 to inhibit the XBP-1 pathway and rescued with control BSA or oleic acid (OA) (FIG. 4B), which is the upstream product for lipid biosynthesis (Yao et al., 2017).
# A1847 cells = assay: Dose response of B-I09 in wild-type and CARM1 knockout A1847 cells; type: cell-based; conditions: wild-type vs CARM1 knockout A1847 cells (FIG. 3B)
# [1] = system: A1847 cells with or without CARM1 knockout; assay: Western blotting of apoptotic markers (cleaved PARP, cleaved lamin A); type: cell-based; conditions: CARM1-high parental vs CARM1 knockout cells, B-I09 treatment
# Text: (§1) FIGS. 4A-C. […] (FIG. 4A) Western blotting of apoptotic markers in A1847 cells with or without CARM1 knockout treated with or without B-I09. (FIGS. 4B-C) Schematics (FIG. 4B) and dose response curves (FIG. 4C) of A1847 cells with or without CARM1 knockout treated with B-I09 and rescued with BSA or oleic acid (OA).
# FIGS. 15A-F. IRE-1a-XBP-1 pathway is required for CARM1-expressing OvCa. (FIG. 15A) Colony formation assays of wildtype and CARM1 knockout A 1847 and PEO4 cells treated with IRE-1α inhibitor B-I09 or 4μ8c. […] (FIG. 15C) Western blotting of apoptotic markers cleaved PARP and cleaved Lamin A and loading control β-actin. […] (FIG. 15D) The CARM1 levels in a panel of High Grade Serous Ovarian Cancer (HGSOC) cell lines were examined by western blotting. CARM1 is highly expressed in PEO4, OSAHO and A1847 cell lines. (FIG. 15E) Survival curves of colony formation assays of the panel of HGSOC cell lines treated with B-I09. (FIG. 15F) Comparison of IC50 of CARM1-high and CARM1-low HGSOC cell lines under treatment of B-I09.
# ARID1A mutant tumor = ARID1A mutant tumor formation under B-I09; type: in vivo; conditions: FIG. 39, 40
# ARID1A-mutant OCCC PDX = ARID1A-mutant OCCC PDX mice treated with B-I09; type: in vivo; conditions: ARID1A-mutant OCCC PDX mice (FIG. 45)
# [2] = B-I09 treatment with CD8 depletion; type: in vivo; conditions: FIG. 44
# CARM1-high tumors = assay: Orthotopic CARM1-high and CARM1-low PDX and A1847 xenograft mouse models; type: in vivo, mice; conditions: CARM1-high vs CARM1-low PDX; wild-type vs CARM1 knockout A1847 xenograft
# Text: (FIG. 18A) Hematoxylin and eosin (HE) staining, and immunohistochemical staining with anti-CARM1 antibody in CARM1-low and CARM1-high PDX. (FIG. 18B) Confirmation of CARM1 expression levels in CARM1-low and -high PDXs by western blotting. A1847 and OVCAR3 cell lysates were used as positive control for CARM1-high and CARM1-low expression, respectively. (FIGS. 18C-D) Schematic of experimental design for PDX mouse model was shown. Mice with indicated orthotopic CARM1-high and CARM1-low PDXs were randomized into two groups and treated with vehicle control or B-I09. Tumor weight was measured as a representation for tumor burden at the end of the treatment. (FIGS. 18E-F) Schematic of experimental design for orthotopic injection A1847 xenograft was shown. Mice with indicated orthotopic injection of wild-type or CARM1 knockout A1847 cells were randomized into two groups and treated with vehicle control or B-I09. Tumor weight was measured as a representation for tumor burden at the end of the treatment. (FIG. 18G) Kaplan-Meier survival curves for indicated xenograft groups. P value was calculated by log rank test. (FIG. 18H) Immunohistochemistry for apoptotic marker cleaved caspase 3 and proliferation marker Ki67, histological scores (H-score) were calculated for three separate fields from five tumors from five individual mice from each of the indicated groups.
# UPK10 cells = assay: Orthotopic UPK10 xenograft, B-I09 with PD-1 immune therapy; type: in vivo, B6 Mice; conditions: B-I09 50 mg per kg, 5 weekdays per week i.p., with PD-1 10 mg per kg twice per week
# Description: (FIG. 19A) Western blotting of CARM1 and loading control […]-actin in UPK10, […] and OVCAR3 cells. (FIG. 19B) Schematic of experimental design for orthotopic injection UPK10 xenograft was shown. B6 Mice with indicated orthotopic injection of UPK10 cells were randomized into four different treatment groups and treated with control vehicle, B-[…] (50 mg per kg, 5 weekdays per week by i.p.), PD-1 (10 mg per kg, twice per week) or a combination. (FIG. 19C) Tumor weight was measured as a representation for tumor burden at the end of the treatment. coefficient of drug interaction (CDI) was calculated. (FIG. 19D) Tumor infiltrated lymphocytes (TILs) was analyzed by flow cytometry. The percentage of CD4^+ T cell, CD8^+ T cell, B cell in […] cell and macrophage were shown.
# [3] = system: hematological malignancies; conditions: cited from earlier work
# [4] = system: Arid1a flox/flox;(Gt)Rosa26Pik3ca*H1047R OCCC tumors; assay: Genetic OCCC mouse model (conditional inactivation of Arid1a, activation of Pik3ca)
# EZH2 compared to EZH1 = EZH2 compared to EZH1 (Homo sapiens, UniProt Q15910); conditions: cited from earlier work
# Sequence of EZH2 compared to EZH1 (Q15910 whole entry): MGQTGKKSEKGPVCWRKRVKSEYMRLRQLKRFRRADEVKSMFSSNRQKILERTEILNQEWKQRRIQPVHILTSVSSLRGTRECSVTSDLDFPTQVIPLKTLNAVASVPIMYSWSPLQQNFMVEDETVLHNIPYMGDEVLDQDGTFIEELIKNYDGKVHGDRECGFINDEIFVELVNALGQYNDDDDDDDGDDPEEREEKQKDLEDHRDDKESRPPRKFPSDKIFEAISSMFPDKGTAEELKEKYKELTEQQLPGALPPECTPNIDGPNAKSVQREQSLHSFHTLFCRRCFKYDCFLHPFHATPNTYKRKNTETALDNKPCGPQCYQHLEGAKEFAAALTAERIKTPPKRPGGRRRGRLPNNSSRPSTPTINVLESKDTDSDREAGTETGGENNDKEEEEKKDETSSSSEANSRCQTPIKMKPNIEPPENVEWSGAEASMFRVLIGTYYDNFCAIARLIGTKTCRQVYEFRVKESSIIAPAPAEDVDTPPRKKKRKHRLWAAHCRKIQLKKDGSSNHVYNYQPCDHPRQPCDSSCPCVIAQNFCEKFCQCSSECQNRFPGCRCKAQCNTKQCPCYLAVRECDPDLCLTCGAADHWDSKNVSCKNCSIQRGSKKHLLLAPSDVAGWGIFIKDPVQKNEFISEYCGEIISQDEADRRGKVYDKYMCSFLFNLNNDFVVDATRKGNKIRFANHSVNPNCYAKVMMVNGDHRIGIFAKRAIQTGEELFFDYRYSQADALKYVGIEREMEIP
# Sequence of EZH2 compared to EZH1 (O75530 whole entry partner): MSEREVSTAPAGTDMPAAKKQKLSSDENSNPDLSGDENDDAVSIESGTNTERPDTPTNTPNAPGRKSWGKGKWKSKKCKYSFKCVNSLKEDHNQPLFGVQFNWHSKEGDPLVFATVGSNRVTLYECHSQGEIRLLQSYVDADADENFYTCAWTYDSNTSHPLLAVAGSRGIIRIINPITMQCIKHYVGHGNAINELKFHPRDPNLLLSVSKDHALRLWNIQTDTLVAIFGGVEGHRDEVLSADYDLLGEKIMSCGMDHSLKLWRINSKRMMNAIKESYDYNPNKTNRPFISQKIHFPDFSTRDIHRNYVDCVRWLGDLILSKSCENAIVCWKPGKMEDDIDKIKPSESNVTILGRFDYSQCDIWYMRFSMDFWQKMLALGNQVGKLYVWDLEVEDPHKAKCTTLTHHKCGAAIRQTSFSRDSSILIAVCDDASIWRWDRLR
# Sequence of EZH2 compared to EZH1 (Q15022 whole entry partner): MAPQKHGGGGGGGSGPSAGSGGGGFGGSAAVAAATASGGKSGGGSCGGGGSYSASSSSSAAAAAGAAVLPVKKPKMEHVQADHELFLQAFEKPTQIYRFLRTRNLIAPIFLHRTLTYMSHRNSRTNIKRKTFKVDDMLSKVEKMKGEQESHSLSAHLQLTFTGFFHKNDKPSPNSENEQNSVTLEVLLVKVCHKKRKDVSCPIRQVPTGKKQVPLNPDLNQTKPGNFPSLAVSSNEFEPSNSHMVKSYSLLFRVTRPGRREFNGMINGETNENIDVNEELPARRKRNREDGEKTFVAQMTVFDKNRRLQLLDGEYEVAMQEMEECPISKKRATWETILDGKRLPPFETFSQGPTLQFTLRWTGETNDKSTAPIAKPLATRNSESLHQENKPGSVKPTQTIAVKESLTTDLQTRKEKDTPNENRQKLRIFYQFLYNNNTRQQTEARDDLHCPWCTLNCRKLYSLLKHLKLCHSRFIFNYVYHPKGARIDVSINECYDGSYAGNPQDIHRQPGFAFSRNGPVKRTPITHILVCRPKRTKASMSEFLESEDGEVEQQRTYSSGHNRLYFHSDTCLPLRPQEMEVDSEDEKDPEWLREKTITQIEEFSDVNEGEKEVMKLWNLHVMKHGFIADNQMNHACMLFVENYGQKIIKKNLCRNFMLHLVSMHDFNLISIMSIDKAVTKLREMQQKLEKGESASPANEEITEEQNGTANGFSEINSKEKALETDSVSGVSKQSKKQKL
# Sequence of EZH2 compared to EZH1 (Q09028 whole entry partner): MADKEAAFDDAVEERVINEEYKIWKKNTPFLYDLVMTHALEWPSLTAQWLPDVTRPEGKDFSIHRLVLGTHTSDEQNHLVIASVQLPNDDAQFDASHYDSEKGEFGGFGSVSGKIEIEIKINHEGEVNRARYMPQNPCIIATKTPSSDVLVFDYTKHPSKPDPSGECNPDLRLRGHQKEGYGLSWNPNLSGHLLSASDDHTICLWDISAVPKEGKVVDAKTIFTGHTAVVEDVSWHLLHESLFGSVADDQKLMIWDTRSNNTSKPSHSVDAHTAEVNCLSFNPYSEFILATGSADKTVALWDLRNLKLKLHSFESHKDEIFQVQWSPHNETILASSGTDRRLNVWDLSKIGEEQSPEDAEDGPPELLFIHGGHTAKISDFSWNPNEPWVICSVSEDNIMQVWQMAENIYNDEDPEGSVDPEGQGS
# RMG1 cells = assay: Cisplatin and B-I09 combination in RMG1 wild-type and ARID1A knock-out cells; type: cell-based; conditions: RMG1 wild-type vs RMG1 ARID1A knock-out cells (FIG. 11); preliminary
# Text: FIG. 11. […] IC50 of cisplatin in RMG1 wild-type compared to RMG1 ARID1A knock-out cells in combination with B-I09. Data from 3 replicates.
# Resistance to cisplatin has been associated with an increase in ER stress-mediated cellular survival mechanisms in ovarian cancer (Avril et al., 2017; Lei et al., 2015; Xu et al., 2015). […] The inventors hypothesize that ER stress inhibition is synergistic with platinum-based chemotherapy in ARID1A-mutated OCCCs. To test this hypothesis, the inventors will treat ARID1A wild-type, ARID1A CRISPR-Cas9 knock-out, and ARID/A-mutant or wild-type OCCC cells with increasing concentrations of cisplatin or carboplatin. ER stress response induction will be analyzed by western blot and RT-qPCR analyzing the expression of ER stress response proteins such as IRE-1, XBP-1, PERK, ATF6 and BiP. They expect that platinum-based therapy-induces enhanced ER stress responses in ARID1A mutant/knock-out cells. ER stress response induction may sensitize them to treatment combination of platinum-based therapies and B-I09. […] The inventors will expand this analysis into a panel of ARID1A wild-type (such as RMG1, OVCA429 and KK) and mutant (such as TOV21G, OVTOKO, and OVISE) OCCC cell lines to further establish the efficacy of combination treatment of platinum-based therapy and B-I09. […]
# [5] = system: A1847 cells with or without CARM1 knockout; assay: Oleic acid rescue of B-I09-treated cells; type: cell-based; conditions: cells treated with B-I09, rescued with BSA or oleic acid (FIG. 4C); preliminary
# Text: as §1
smiles,measurement,setting,value
O=c1oc2c(C3OCCCO3)c(O)ccc2c2c1CNCC2 [B-I09],activation of XBP-1 / expression of active XBP-1s,XBP-1,inhibits the activation of XBP-1; also recorded: decreasing the expression of active XBP-1s
same,"sensitivity to B-I09, dose response curve",A1847 cells,wild-type cells are significantly more sensitive to B-I09 compared with knockout cells
same,"induction of apoptosis (cleaved PARP, cleaved lamin A)",[1],specifically induces apoptosis in CARM1-high cells; also recorded: specifically induced apoptosis in wildtype CARM1-high cells; also recorded: selectively induced apoptosis in CARM1-high but not CARM1-low or CARM1 knockout HGSOC cells
same,ARID1A mutant tumor formation,ARID1A mutant tumor,selectively suppresses ARID1A mutant tumor formation
same,tumor growth,ARID1A-mutant OCCC PDX,suppresses tumor growth
same,effect of CD8 depletion on B-I09 treatment,[2],CD8 depletion does not affect B-I09 treatment
same,"sensitivity of tumors (tumor weight, survival) to B-I09",CARM1-high tumors,CARM1-high tumors are sensitive to IRE-1α-XBP-1 inhibition
same,drug interaction on tumor weight (coefficient of drug interaction),UPK10 cells,synergizes with PD-1 immune therapy
same,efficacy in hematological malignancies,[3],has been effective in treating hematological malignancies
same,survival (Kaplan-Meier),"[4]; 50 mg/Kg B-I09, tumor bearing mice",enhances mouse survival
same,tumor growth / progression (tumor weight),[4]; 50 mg/Kg B-I09 for 3 weeks (5 days on/2 off),reduces OCCC tumor growth in vivo; also recorded: suppresses tumor progression
Cc1cc(C)c(CNC(=O)c2cc(-c3ccc(CN4CCOCC4)cc3)cc3c2cnn3C2CCCC2)c(=O)[nH]1 [EPZ005687],selectivity for EZH2 over EZH1,EZH2 compared to EZH1,50 fold
N.N.[Cl][Pt][Cl] [cisplatin],IC50 of cisplatin in combination with B-I09,RMG1 cells,reduces the IC50 of cisplatin more effectively in RMG1 CRISPR/Cas9 KO cells compared to their wild-type parental control; also recorded: Loss of ARID1A promotes sensitivity to cisplatin and B-I09 combination
CCCCCCCC/C=C\CCCCCCCC(=O)O [oleic acid],rescue from B-I09 inhibition of XBP-1,[5],can rescue A1847 wild-type cells from the inhibition of XBP-1 but has no effect on CARM1 knockout cells
